For series [1] the following is noted: references 11, 12, 13; cited from earlier work.
The conditions of series [2]: clinical trials; reference 17; cited from earlier work.
For series [3], the system named is ATR. The conditions noted are these: reference 10; cited from earlier work.
In series [4] the test system is ATM. Conditions: reference 10; cited from earlier work.
Series [5] relates to active lesions (acne). In words: Combined analysis of acne lesion clearance, Examples 3, 6 and 7 (FIG. 6). The series is classed as in vivo, human. The conditions noted are these: pre- and final post-treatment data of Examples 3, 6 and 7; P 0.005 paired, two-tailed T-test.
Series [6] concerns DNA repair. Conditions: in vitro, through modulating the activity of ATM/ATR kinases, as well as PARP; references 10,11,12,14; cited from earlier work.
Series [7] concerns PARP. The conditions noted are these: only compound with activity on PARP in addition to ATM and ATR; cited from earlier work.
The test system of series [8] is actinic keratoses. In words: Theobromine alone on actinic keratoses (comparative Examples 4 and 5). The format is in vivo, human. Conditions: 0.5% theobromine solution applied once, 1 month later. The procedure:
A person presented with actinic keratoses on their scalp. Three actinic keratoses were selected by a qualified dermatologist and treated once with 0.5% theobromine topical preparation solution. The theobromine solution was prepared in 25% ethanol and 50% glycerol, adjusted to pH 8 via 100 mM sodium hydrogen carbonate solution. For treatment, theobromine solution was applied to the selected lesions of the scalp in a thin aqueous film using 50 μL of the solution per lesion (1 drop). The solution was left to dry and permeate the skin for 20 minutes. The position of the lesions was marked with a water-soluble marker and the lesions were photographed. The patient was reviewed 1 month later by a qualified dermatologist and the lesions were compared with the baseline photographs.
A person presented with actinic keratoses on their face and scalp. An actinic keratosis was selected by a qualified dermatologist on their right cheek and treated once with 0.5% theobromine topical preparation solution. The theobromine solution was prepared in 25% ethanol and 50% glycerol, adjusted to pH 8 via 100 mM sodium hydrogen carbonate solution. For treatment, theobromine solution was applied to the selected lesions of the […] in a thin aqueous film using 50 μL of the solution per lesion (1 drop). The solution was left to dry and permeate the skin for 20 minutes. […]

The test system of series [9] is acne. Description: Theobromine treatment of acne (comparative Examples 8-11). The format is in vivo, human. The conditions noted are these: 0.5% theobromine topical; for improvement of acne: data not shown. As for the experimental part: A patient presented with acne bilaterally on their face. The acne presented as active inflammatory reaction or as visible white liquid-filled extrusions. For the purposes of the test, the affected area was split into two sections, left cheek and right cheek. The right face was treated with 0.5% theobromine topical preparation solution. The theobromine solution was prepared in 25% ethanol and 50% glycerol, adjusted to pH 8 via 100 mM sodium hydrogen carbonate solution.
For the purposes of the treatment, theobromine solution was applied to the right side of the face in a thin film using 100-200 μL of the solution (2-4 drops). The solution was left to dry and penetrate the skin for 20 minutes, after which both sides of the face were covered in the photosensitizer cream as per manufacturer's instructions, using 1-1.5 g of cream. The cream was left to penetrate the skin for 5-10 minutes and the patient was asked not to wash their face for 2 hours.
The patient was assessed first prior to treatment and subsequently 1 month after for the success and quantification of active acne on each side of the face by a qualified dermatologist.
A patient presented with acne bilaterally on their face. The acne presented as active inflammatory reaction or as visible white liquid-filled extrusions. For the purposes of the test, the affected area was split into two sections, left cheek and right cheek. The left face was treated with 0.5% theobromine topical preparation solution. The theobromine solution was prepared in 25% ethanol and 50% glycerol, adjusted to pH 8 via 100 mM sodium hydrogen carbonate solution.
For the purposes of the treatment, theobromine solution was applied to the left side of the face in a thin film using 100-200 μL of the solution (2-4 drops). […]
The patient was assessed first prior to treatment and subsequently 6 weeks after for the success and quantification of active acne on each side of the face by a qualified dermatologist.

SMILES strings stand for the structures. “Also recorded” adds a separate entry of the source.

`CC(=O)CCCCn1c(=O)c2c(ncn2C)n(C)c1=O` [pentoxyphilline]: in series [1], the radiosensitising activity result is given as “radiosensitisers”. Moreover, in series [2], the “clinical benefit as radiosensitiser” value is reported as “failed to provide consistent benefits”.
As for `Cn1c(=O)c2c(ncn2C)n(C)c1=O` [caffeine], in series [1], the radiosensitising activity result is “radiosensitisers”. Moreover, the ATR inhibition result in [3] was “inhibitors of both ATM and ATR”. Moreover, in [4], the ATM inhibition entry is “inhibitors of both ATM and ATR”.
In the case of `Cn1c(=O)c2[nH]cnc2n(C)c1=O` [theophylline], the radiosensitising activity result in [1] is “radiosensitisers”.
For the compound `COC(=O)CCC(=O)CN` [methyl aminolevulinate], the “average clearance of active lesions” value in series [5] was 32%.
For the compound `Cn1cnc2c1c(=O)[nH]c(=O)n2C` [theobromine], the radiosensitising activity result in [1] is “radiosensitisers”. The “inhibition of DNA repair” value in series [6] is listed as “inhibit DNA repair in vitro”. For the same compound, the PARP inhibitory activity result in [7] was “measurable PARP inhibitory activity”. Also, the ATR inhibition result in [3] was “inhibitors of both ATM and ATR”. The “improvement of actinic keratosis” value in series [8] (no photosensitizer) is “No improvement of actinic keratoses was observed; also recorded: No improvement of actinic keratosis was observed”. Further, the redness or soreness entry in series [8] was “No redness or soreness were observed”. Besides, in [9] (1 month (Examples 8, 9, 10) or 6 weeks (Example 11)), the patient-reported adverse effects result was “No patient-reported adverse effects”. Besides, the improvement of acne entry in series [9] (1 month after (Examples 8, 9, 10)) is on record as “did not improve acne”; in series [9] (6 weeks after (Example 11)), “did not improve acne”. In addition, the ATM inhibition entry in series [4] is “inhibitors of both ATM and ATR”.
